From PubChem BioAssay AID248 (DTP/NCI, 2004)
Inconclusive results and toxic doses are left out.

Test system: L1210 leukemia ip in BDF1 mice, survival T/C
Experiment: NCI In Vivo Anticancer Drug Screen. Data for tumor model L1210 Leukemia (intraperitoneal) in B6D2F1 (BDF1) mice
Settings: endpoint: mean survival time, higher = longer survival
Procedure, shortened: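 Tumor cells were implanted, animals were treated, and survival was followed. The result divides the treated measurement by the vehicle-control measurement.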

[1] = dose: 100.0 mg/kg/injection, schedule: Q01DX009 (ip), vehicle: saline with Tween-80
[2] = dose: 100.0 mg/kg/injection, schedule: Q04DX003 (ip), vehicle: saline with Tween-80
[3] = dose: 200.0 mg/kg/injection, schedule: Q01DX009 (ip), vehicle: saline with Tween-80
[4] = dose: 200.0 mg/kg/injection, schedule: Q04DX003 (ip), vehicle: saline with Tween-80
[5] = dose: 400.0 mg/kg/injection, schedule: Q04DX003 (ip), vehicle: saline with Tween-80
[6] = dose: 50.0 mg/kg/injection, schedule: Q01DX009 (ip), vehicle: Klucel (hydroxypropylcellulose) (HPC)
[7] = dose: 50.0 mg/kg/injection, schedule: Q01DX001 (ip), vehicle: saline
[8] = dose: 100.0 mg/kg/injection, schedule: Q01DX001 (ip), vehicle: saline
[9] = dose: 100.0 mg/kg/injection, schedule: Q01DX009 (ip), vehicle: Klucel (hydroxypropylcellulose) (HPC)
[10] = dose: 200.0 mg/kg/injection, schedule: Q01DX009 (ip), vehicle: Klucel (hydroxypropylcellulose) (HPC)

CCOC(=O)CC(=O)c1cccc(S(=O)(=O)F)c1
T/C [1]: 98 % of control
T/C [2]: 104 % of control
T/C [3]: 103 % of control
T/C [4]: 98 % of control
T/C (dose: 400.0 mg/kg/injection, schedule: Q01DX009 (ip), vehicle: saline with Tween-80): 92 % of control
T/C [5]: 102 % of control

CC(C)(C)C1Sc2nc3ccccc3n2C1=O (stereo unspecified)
T/C (dose: 12.5 mg/kg/injection, schedule: Q01DX009 (ip), vehicle: Klucel (hydroxypropylcellulose) (HPC)): 101 % of control
T/C (dose: 12.5 mg/kg/injection, schedule: Q04DX003 (ip), vehicle: Klucel (hydroxypropylcellulose) (HPC)): 98 % of control
T/C (dose: 25.0 mg/kg/injection, schedule: Q01DX009 (ip), vehicle: Klucel (hydroxypropylcellulose) (HPC)): 97 % of control
T/C (dose: 25.0 mg/kg/injection, schedule: Q04DX003 (ip), vehicle: Klucel (hydroxypropylcellulose) (HPC)): 92 % of control
T/C [6]: 96 % of control
T/C (dose: 50.0 mg/kg/injection, schedule: Q04DX003 (ip), vehicle: Klucel (hydroxypropylcellulose) (HPC)): 92 % of control

Clc1nc(I)c(Cl)c(I)n1
T/C (dose: 6.25 mg/kg/injection, schedule: Q01DX009 (ip), vehicle: other): 119 % of control
T/C (dose: 12.5 mg/kg/injection, schedule: Q01DX009 (ip), vehicle: other): 101 % of control
T/C (dose: 25.0 mg/kg/injection, schedule: Q01DX009 (ip), vehicle: other): 94 % of control

CCNC(=O)c1cc(NC(=O)Nc2ccc(C3=NCCN3)cc2)cc(NC(=O)Nc2ccc(C3=NCCN3)cc2)c1
T/C (dose: 62.0 mg/kg/injection, schedule: Q01DX Z (ip), vehicle: carboxymethylcellulose (CMC)): 102 % of control
T/C (dose: 125.0 mg/kg/injection, schedule: Q01DX Z (ip), vehicle: carboxymethylcellulose (CMC)): 103 % of control
T/C (dose: 250.0 mg/kg/injection, schedule: Q01DX Z (ip), vehicle: carboxymethylcellulose (CMC)): 107 % of control
T/C (dose: 500.0 mg/kg/injection, schedule: Q01DX Z (ip), vehicle: carboxymethylcellulose (CMC)): 102 % of control

OC(Cc1[nH]c2ccccc2c1C(O)(C(F)(F)F)C(F)(F)F)(C(F)(F)F)C(F)(F)F
T/C (dose: 100.0 mg/kg/injection, schedule: Q04DX003 (ip), vehicle: other): 109 % of control
T/C (dose: 200.0 mg/kg/injection, schedule: Q04DX003 (ip), vehicle: other): 109 % of control
T/C (dose: 400.0 mg/kg/injection, schedule: Q04DX003 (ip), vehicle: other): 98 % of control

CC(C)=NN=C(C)C
T/C (dose: 12.5 mg/kg/injection, schedule: Q01DX001 (ip), vehicle: saline): 101 % of control
T/C (dose: 12.5 mg/kg/injection, schedule: Q01DX009 (ip), vehicle: saline): 101 % of control
T/C (dose: 25.0 mg/kg/injection, schedule: Q01DX001 (ip), vehicle: saline): 99 % of control
T/C (dose: 25.0 mg/kg/injection, schedule: Q01DX009 (ip), vehicle: saline): 100 % of control
T/C (dose: 25.0 mg/kg/injection, schedule: Q04DX003 (ip), vehicle: saline): 100 % of control
T/C [7]: 111 % of control
T/C (dose: 50.0 mg/kg/injection, schedule: Q04DX003 (ip), vehicle: saline): 102 % of control
T/C [8]: 110 % of control

Cc1ccc(S(=O)(=O)OC2COC3C2OC2OC(C)(C)OC23)cc1 (stereo unspecified)
T/C [2]: 112 % of control
T/C [4]: 101 % of control
T/C [5]: 106 % of control

CN(N=O)C(=O)NC1CCOCC1
T/C (dose: 10.0 mg/kg/injection, schedule: Q01DX001 (ip), vehicle: saline): 102 % of control
T/C (dose: 20.0 mg/kg/injection, schedule: Q01DX001 (ip), vehicle: saline): 103 % of control
T/C (dose: 40.0 mg/kg/injection, schedule: Q01DX001 (ip), vehicle: saline): 104 % of control
T/C (dose: 60.0 mg/kg/injection, schedule: Q01DX001 (ip), vehicle: saline): 109 % of control
T/C (dose: 90.0 mg/kg/injection, schedule: Q01DX001 (ip), vehicle: saline): 102 % of control
T/C (dose: 187.0 mg/kg/injection, schedule: Q01DX001 (ip), vehicle: saline): 119 % of control
T/C (dose: 250.0 mg/kg/injection, schedule: Q01DX001 (ip), vehicle: saline): 112 % of control
T/C (dose: 500.0 mg/kg/injection, schedule: Q01DX001 (ip), vehicle: saline): 159 % of control
T/C (dose: 750.0 mg/kg/injection, schedule: Q01DX001 (ip), vehicle: saline): 187 % of control

CC1(C)OC2OCC(O)C2O1 (stereo unspecified)
T/C (dose: 50.0 mg/kg/injection, schedule: Q04DX002 (ip), vehicle: saline): 100 % of control
T/C (dose: 100.0 mg/kg/injection, schedule: Q04DX002 (ip), vehicle: saline): 104 % of control
T/C (dose: 200.0 mg/kg/injection, schedule: Q04DX002 (ip), vehicle: saline): 110 % of control

CN1C(=O)NC(C)(c2cccs2)C1=O (stereo unspecified)
T/C [1]: 112 % of control
T/C [2]: 99 % of control
T/C [3]: 113 % of control
T/C [4]: 106 % of control
T/C [5]: 97 % of control

O=C(O)C(Cc1cccs1)Cc1cccs1
T/C (dose: 50.0 mg/kg/injection, schedule: Q04DX003 (ip), vehicle: carboxymethylcellulose (CMC)): 120 % of control
T/C (dose: 100.0 mg/kg/injection, schedule: Q04DX003 (ip), vehicle: carboxymethylcellulose (CMC)): 104 % of control
T/C (dose: 200.0 mg/kg/injection, schedule: Q04DX003 (ip), vehicle: carboxymethylcellulose (CMC)): 108 % of control

COc1cc2cc(C)c(C)cc2cc1OC
T/C (dose: 100.0 mg/kg/injection, schedule: Q01DX001 (ip), vehicle: Klucel (hydroxypropylcellulose) (HPC)): 98 % of control
T/C [9]: 103 % of control
T/C (dose: 200.0 mg/kg/injection, schedule: Q01DX001 (ip), vehicle: Klucel (hydroxypropylcellulose) (HPC)): 101 % of control
T/C [10]: 110 % of control
T/C (dose: 400.0 mg/kg/injection, schedule: Q01DX001 (ip), vehicle: Klucel (hydroxypropylcellulose) (HPC)): 98 % of control
T/C (dose: 400.0 mg/kg/injection, schedule: Q01DX009 (ip), vehicle: Klucel (hydroxypropylcellulose) (HPC)): 109 % of control

C(=C\c1cc[n+](CCc2ccccc2)cc1)/c1ccccc1
T/C (dose: 6.25 mg/kg/injection, schedule: Q04DX003 (ip), vehicle: saline with Tween-80): 110 % of control
T/C (dose: 12.5 mg/kg/injection, schedule: Q04DX003 (ip), vehicle: saline with Tween-80): 89 % of control
T/C (dose: 25.0 mg/kg/injection, schedule: Q04DX003 (ip), vehicle: saline with Tween-80): 101 % of control

CC1CCC(C(C)C)C(N(C)Cc2cc(Br)cc(Br)c2O)C1 (stereo unspecified)
T/C [6]: 102 % of control
T/C [9]: 107 % of control
T/C [2]: 104 % of control
T/C [10]: 105 % of control
T/C [4]: 104 % of control
T/C [5]: 98 % of control

COC1CCC2(C)C3CCC4C(=CCC5C(C)(C)C(=O)CCC45C)CC3(C)CCC2C1(C)C (stereo unspecified)
T/C (dose: 75.0 mg/kg/injection, schedule: Q01DX001 (ip), vehicle: carboxymethylcellulose (CMC)): 105 % of control
T/C (dose: 150.0 mg/kg/injection, schedule: Q01DX001 (ip), vehicle: carboxymethylcellulose (CMC)): 110 % of control
T/C (dose: 300.0 mg/kg/injection, schedule: Q01DX001 (ip), vehicle: carboxymethylcellulose (CMC)): 104 % of control

O=C(O)C1OC1(c1ccccc1Cl)c1ccccc1Cl (stereo unspecified)
T/C [7]: 101 % of control
T/C [8]: 95 % of control
T/C (dose: 200.0 mg/kg/injection, schedule: Q01DX001 (ip), vehicle: saline): 98 % of control
T/C (dose: 400.0 mg/kg/injection, schedule: Q01DX001 (ip), vehicle: saline): 104 % of control

O=C1C2CC=CCC2C(=O)N1SC(Cl)(Cl)Cl (stereo unspecified)
T/C (dose: 0.78 mg/kg/injection, schedule: Q01DX009 (ip), vehicle: saline with Tween-80): 107 % of control
T/C (dose: 1.56 mg/kg/injection, schedule: Q01DX009 (ip), vehicle: saline with Tween-80): 104 % of control
T/C (dose: 3.12 mg/kg/injection, schedule: Q01DX009 (ip), vehicle: saline with Tween-80): 103 % of control
T/C (dose: 6.25 mg/kg/injection, schedule: Q01DX009 (ip), vehicle: saline with Tween-80): 103 % of control
T/C (dose: 12.5 mg/kg/injection, schedule: Q01DX009 (ip), vehicle: saline with Tween-80): 97 % of control
T/C (dose: 25.0 mg/kg/injection, schedule: Q01DX009 (ip), vehicle: saline with Tween-80): 98 % of control
